Some test systems named below: ACHN renal; SK-MEL-2 melanoma; OVCAR-5 ovarian; MALME-3M melanoma; NCI-H23 lung; OVCAR-3 ovarian; MDA-MB-435; HS 578T breast; MCF7 breast.
Common to all, as to assay: inhibition of tumour cell growth, NCI panel, 48 h

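In this assay, cells in 96-well plates receive the compound at five concentrations for 48 hours. Endpoints are linearly interpolated between the surrounding concentrations. Abbreviation: GI50, concentration required for 50% inhibition of growth. TGI: total growth inhibition.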

As to `CCCN(CCCCC(NC(C)=O)C(=O)NCc1ccccc1)C(=O)N(C)N=O` (centres undefined), the TGI in the assay with ACHN renal, with SK-MEL-2 melanoma, with OVCAR-5 ovarian, in the assay with MALME-3M melanoma, in the assay on NCI-H23 lung and with OVCAR-3 ovarian was more than 100 µM throughout.
Consider `COc1ccc2c(c1)c(-c1ccc(-c3cn(S(=O)(=O)c4ccccc4)c4ccc(OC)cc34)s1)cn2S(=O)(=O)c1ccccc1`, for which the GI50 with MDA-MB-435, in the assay on HS 578T breast, in the assay with ACHN renal, with SK-MEL-2 melanoma, in the assay on OVCAR-5 ovarian and with MALME-3M melanoma was more than 100 µM throughout. Also, the GI50 with NCI-H23 lung, in the assay on MCF7 breast and in the assay on OVCAR-3 ovarian was more than 100 µM throughout. Also, the TGI in the assay on MDA-MB-435, in the assay on HS 578T breast, in the assay on ACHN renal, with SK-MEL-2 melanoma, in the assay with OVCAR-5 ovarian and in the assay on MALME-3M melanoma was more than 100 µM throughout. For the same compound, the TGI in the assay on NCI-H23 lung, in the assay with MCF7 breast and in the assay on OVCAR-3 ovarian was more than 100 µM in each case.
With `COc1ccc(C(=O)C(c2ccc(OC)cc2)C2(O)C(=O)Nc3ccccc32)cc1` (centres undefined), the TGI in the assay on ACHN renal, in the assay with SK-MEL-2 melanoma, with MALME-3M melanoma, in the assay on NCI-H23 lung and in the assay on OVCAR-3 ovarian was more than 100 µM in each case.
As to `O=C(O)C(CP(=O)(O)O)=C(Cl)Cl`, the TGI with ACHN renal, in the assay with SK-MEL-2 melanoma, in the assay on OVCAR-5 ovarian, in the assay with MALME-3M melanoma, with NCI-H23 lung and with OVCAR-3 ovarian was more than 100 µM each time.
For the compound `COC(=O)C1=C(O)c2cc(OC)c(OC)c(OC)c2[C@H](c2cc(OC)c(OC)c(OC)c2)C1C(=O)OC` (some centres undefined), the TGI in the assay on ACHN renal is more than 100 µM; in the assay with OVCAR-5 ovarian it was more than 100 µM; in the assay on MALME-3M melanoma it was more than 100 µM; in the assay on NCI-H23 lung it was more than 100 µM; with OVCAR-3 ovarian it was 58.4 µM.
On to `Cc1c(Cl)ccc2c1NC(=O)C2(O)C(C(=O)c1ccccc1)c1ccccc1` (centres undefined), for which the TGI is more than 100 µM in the assay with ACHN renal; more than 100 µM in the assay on SK-MEL-2 melanoma; more than 100 µM in the assay on OVCAR-5 ovarian; more than 100 µM in the assay with MALME-3M melanoma; 42.2 µM with NCI-H23 lung.
`O=S1c2ccccc2N=C(c2ccc3ccccc3c2)CC1C1=CC=CCC1` (centres undefined): the TGI in the assay with ACHN renal was 42.6 µM; in the assay with SK-MEL-2 melanoma, 40.5 µM; in the assay on OVCAR-5 ovarian it was 40.6 µM; in the assay on MALME-3M melanoma it was 62.3 µM; in the assay with NCI-H23 lung, 30.6 µM; in the assay on OVCAR-3 ovarian, 31.8 µM.
As to `COC(=O)/C=C1/CCC2[C@@H](C(=O)CC3[C@]2(C)CCC[C@@]3(C)C(=O)OC)C1C` (some centres undefined), the TGI with ACHN renal worked out at 24.2 µM; in the assay on SK-MEL-2 melanoma, 35.7 µM; in the assay on OVCAR-5 ovarian it was 39.4 µM; in the assay on MALME-3M melanoma it was 34.8 µM; with NCI-H23 lung, 31.6 µM; in the assay with OVCAR-3 ovarian, 20.4 µM.
With `CN(C)CCNC(=O)c1cc2ccccc2c2nc3ccccc3nc12`, the TGI with ACHN renal came to 2.1 µM; in the assay with SK-MEL-2 melanoma it was 2.81 µM; in the assay with OVCAR-5 ovarian, 5.64 µM; in the assay on MALME-3M melanoma, 2.06 µM; with NCI-H23 lung it was 2.69 µM; in the assay on OVCAR-3 ovarian it was 6.35 µM.
For `COc1cc(/C=C2\[C@H]3c4c(c(OC)c(C)c(OC)c4OC)C[C@@H](C(=O)N2Cc2ccccc2)N3C(=O)OCC(C)C)c(OC)c(C)c1OC`, the TGI in the assay on ACHN renal, in the assay with SK-MEL-2 melanoma, in the assay on OVCAR-5 ovarian, in the assay on MALME-3M melanoma, in the assay on NCI-H23 lung and with OVCAR-3 ovarian was more than 100 µM each time.
Consider `CCOC(C)C(/C=N/NC(N)=S)=NNC(N)=S` (centres undefined), for which the TGI is more than 100 µM in the assay on ACHN renal; more than 85.3 µM in the assay with SK-MEL-2 melanoma; more than 100 µM in the assay on OVCAR-5 ovarian; more than 100 µM in the assay with MALME-3M melanoma; more than 100 µM in the assay with NCI-H23 lung.
Take `COc1cc(/C=C2/C(=O)N(C(=O)OC(C)C)C(Cc3cc(OC)c(OC)c(C)c3OC)C(=O)N2Cc2ccccc2)c(OC)c(C)c1OC` (centres undefined): the TGI in the assay with ACHN renal, in the assay on SK-MEL-2 melanoma, in the assay on OVCAR-5 ovarian, with MALME-3M melanoma, in the assay with NCI-H23 lung and with OVCAR-3 ovarian was more than 100 µM throughout.
In the case of `CC(=O)OC(/C=C1/C=CC(=O)O1)COC(=O)c1ccccc1` (centres undefined), the TGI with ACHN renal, in the assay with OVCAR-5 ovarian, in the assay on MALME-3M melanoma, in the assay on NCI-H23 lung and with OVCAR-3 ovarian was more than 31.2 µM each time.
`Cc1ccc(NC(=O)C(=O)C2C(=O)N(c3ccccc3)N=C2N)cc1C` (centres undefined): the TGI with ACHN renal, in the assay with OVCAR-5 ovarian, in the assay with MALME-3M melanoma, with NCI-H23 lung and in the assay on OVCAR-3 ovarian was more than 100 µM in each case.
Turning to `CCOC(=O)/C(O)=C(/c1n[nH]c(=O)c2ccccc12)[N+](=O)[O-]`, the TGI with ACHN renal, in the assay on SK-MEL-2 melanoma, in the assay on OVCAR-5 ovarian, with MALME-3M melanoma, in the assay with NCI-H23 lung and with OVCAR-3 ovarian was more than 100 µM throughout.
For the compound `Oc1ccc(-c2nnc3sc(-c4ccc(F)c(Oc5ccccc5)c4)nn23)cc1`, the GI50 with MDA-MB-435 is 68.6 µM; with HS 578T breast, 19.8 µM; with ACHN renal it was 22.7 µM; in the assay on SK-MEL-2 melanoma, more than 100 µM; with OVCAR-5 ovarian, more than 100 µM; in the assay with MALME-3M melanoma, 44.4 µM. Besides, the results for the GI50 with NCI-H23 lung, in the assay with MCF7 breast and in the assay with OVCAR-3 ovarian were 29.3 µM, 14.6 µM and 28.8 µM, respectively. Moreover, the TGI was more than 100 µM in the assay with MDA-MB-435; 51.4 µM with HS 578T breast; 78.3 µM in the assay with ACHN renal; more than 100 µM with SK-MEL-2 melanoma; more than 100 µM in the assay on OVCAR-5 ovarian; 98.7 µM in the assay with MALME-3M melanoma. Moreover, the TGI in the assay on NCI-H23 lung was 92.2 µM; with MCF7 breast, more than 100 µM; with OVCAR-3 ovarian, 76.4 µM.
